In PubChem BioAssay (NCI):
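Each compound was tested at five concentrations against cells in 96-well plates for 48 hours. The concentration for 50% growth inhibition is given as GI50. TGI: concentration producing complete growth inhibition.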

Legend:
Test in all cases: DTP human tumour cell line panel, 48 h
[1] = tested on: MALME-3M melanoma
[2] = tested on: A498 renal
[3] = tested on: HS 578T breast
[4] = tested on: EKVX NSCLC
[5] = tested on: DU-145 prostate
[6] = tested on: SNB-19 CNS
[7] = tested on: NCI-H226 lung
[8] = tested on: CAKI-1 renal
[9] = tested on: A549 NSCLC
[10] = tested on: IGROV1 ovarian
[11] = tested on: UO-31 renal
[12] = tested on: U251 CNS
[13] = tested on: HOP-92 NSCLC
[14] = tested on: SK-OV-3 ovarian
[15] = tested on: KM12 colon
[16] = tested on: UACC-62 melanoma
[17] = tested on: NCI/ADR-RES ovarian
[18] = tested on: MOLT-4 leukemia
[19] = tested on: SNB-75 CNS
[20] = tested on: SW-620 colon
[21] = tested on: CCRF-CEM leukemia
[22] = tested on: TK-10 renal
[23] = tested on: SK-MEL-2 melanoma
[24] = tested on: MDA-MB-231 breast
[25] = tested on: K-562 leukemia
[26] = tested on: HCT-15 colon
[27] = tested on: RPMI-8226 leukemia
[28] = tested on: SF-268 CNS
[29] = tested on: RXF 393 renal
[30] = tested on: MCF7 breast
[31] = tested on: HL-60(TB) leukemia
[32] = tested on: MDA-MB-435
[33] = tested on: SF-539 CNS
[34] = tested on: HOP-62 NSCLC
[35] = tested on: LOX IMVI melanoma
[36] = tested on: SN12C renal
[37] = tested on: OVCAR-8 ovarian
[38] = tested on: SK-MEL-5 melanoma
[39] = tested on: NCI-H522 lung
[40] = tested on: HCC-2998 colon
[41] = tested on: OVCAR-5 ovarian
[42] = tested on: OVCAR-4 ovarian
[43] = tested on: SK-MEL-28 melanoma
[44] = tested on: PC-3 prostate
[45] = tested on: ACHN renal
[46] = tested on: HT29 colon
[47] = tested on: UACC-257 melanoma
[48] = tested on: SF-295 CNS
[49] = tested on: NCI-H460 lung
[50] = tested on: OVCAR-3 ovarian
[51] = tested on: NCI-H23 lung

Q: What does the source list for `NC(=O)c1c(NC(=O)c2ccccc2)sc2c1CCC(=O)C2`?
A: GI50 [1]: 2140 nM; TGI [1]: 5530 nM; GI50 [2]: 1060 nM; TGI [2]: 17200 nM; GI50 [3]: 1200 nM; TGI [3]: 6970 nM; GI50 [4]: 1820 nM; TGI [4]: 11500 nM; GI50 [5]: 4140 nM; TGI [5]: > 100000 nM; GI50 [6]: 3290 nM; TGI [6]: > 100000 nM; GI50 [7]: 2200 nM; TGI [7]: 9100 nM; GI50 [8]: 637 nM; TGI [8]: 3950 nM; GI50 [9]: 3580 nM; TGI [9]: > 100000 nM; GI50 [10]: 1010 nM; TGI [10]: 13300 nM; GI50 [11]: 865 nM; TGI [11]: 2320 nM; GI50 [12]: 955 nM; TGI [12]: 26700 nM; GI50 [13]: 1420 nM; TGI [13]: 4990 nM; GI50 [14]: 2910 nM; TGI [14]: > 100000 nM; GI50 [15]: 1360 nM; TGI [15]: 5610 nM; GI50 [16]: 723 nM; TGI [16]: 2510 nM; GI50 [17]: 1280 nM; TGI [17]: 10400 nM; GI50 [18]: 1120 nM; TGI [18]: 8300 nM; GI50 [19]: 1230 nM; TGI [19]: 6050 nM; GI50 [20]: 352 nM; TGI [20]: 2930 nM; GI50 [21]: 370 nM; TGI [21]: > 100000 nM; GI50 [22]: 6910 nM; TGI [22]: > 100000 nM; GI50 [23]: 2400 nM; TGI [23]: 7210 nM; GI50 [24]: 2300 nM; TGI [24]: 22900 nM; GI50 [25]: 402 nM; TGI [25]: > 100000 nM; GI50 [26]: 375 nM; TGI [26]: 1930 nM; GI50 [27]: 248 nM; TGI [27]: 751 nM; GI50 [28]: 2810 nM; TGI [28]: > 100000 nM; GI50 [29]: 1170 nM; TGI [29]: 5460 nM; GI50 [30]: 1820 nM; TGI [30]: 9020 nM; GI50 [31]: 378 nM; TGI [31]: 3570 nM; GI50 [32]: 3090 nM; TGI [32]: 10500 nM; GI50 [33]: 750 nM; TGI [33]: 3270 nM; GI50 [34]: 3660 nM; TGI [34]: > 100000 nM; GI50 [35]: 1150 nM; TGI [35]: 19500 nM; GI50 [36]: 612 nM; TGI [36]: 11500 nM; GI50 [37]: 1330 nM; TGI [37]: > 100000 nM; GI50 [38]: 1640 nM; TGI [38]: 3040 nM; GI50 [39]: 346 nM; TGI [39]: 2140 nM; GI50 [40]: 2100 nM; TGI [40]: 11000 nM; GI50 [41]: 1770 nM; TGI [41]: 11000 nM; GI50 [42]: 732 nM; TGI [42]: 2010 nM; GI50 [43]: 2880 nM; TGI [43]: 19200 nM; GI50 [44]: 319 nM; TGI [44]: 17600 nM; GI50 [45]: 698 nM; TGI [45]: 2480 nM; GI50 [46]: 2330 nM; TGI [46]: > 100000 nM; GI50 [47]: 2210 nM; TGI [47]: 6130 nM; GI50 [48]: 2690 nM; TGI [48]: 7940 nM; GI50 [49]: 3040 nM; TGI [49]: > 100000 nM; GI50 [50]: 1020 nM; TGI [50]: 2720 nM; GI50 [51]: 627 nM; TGI [51]: 5830 nM
